Experimental data reported in article PMC10825690, “Crystal structures of human immune protein FIBCD1 suggest an extended binding site compatible with recognition of pathogen-associated carbohydrate motifs” (The Journal of Biological Chemistry, 2023).
Where a chain is given by its changes, count along the chain named.

Columns and labels:
FIBCD1-FReD [1] = biological target: T1, FIBCD1-FReD (Homo sapiens, UniProt Q8N539); experiment: Microscale thermophoresis (MST) affinity assay; type: binding; settings: for Kd: labeled FIBCD1-FReD 30 nM, TBS/Tw 5 mM CaCl2, 25 °C, mean ± SD, three to four measurements
T1 construct: FIBCD1-FReD (residues 236–461) was expressed in Sf9 insect cells; made in house; host or cells: Sf9 insect cells (pNT-Bac vector)
T1 sequence (Q8N539 236-461): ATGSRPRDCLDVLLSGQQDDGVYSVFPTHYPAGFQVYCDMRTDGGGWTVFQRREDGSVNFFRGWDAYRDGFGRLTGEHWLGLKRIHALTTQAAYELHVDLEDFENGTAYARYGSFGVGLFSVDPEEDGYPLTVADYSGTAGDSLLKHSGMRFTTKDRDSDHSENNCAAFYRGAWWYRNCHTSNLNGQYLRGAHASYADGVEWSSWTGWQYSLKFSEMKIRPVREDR
Description: (§1) The binding of FIBCD1-FReD with GlcNAc, (GlcNAc)3, and longer N-acetylchitooligosaccharides of defined length ((GlcNAc)5 and (GlcNAc)11) was investigated by ELISA. The relative affinity for these carbohydrates was assessed by inhibiting the binding of FIBCD1 to immobilized acetylated bovine serum albumin (AcBSA) in microtiter plates. […] The ligand-binding properties of FIBCD1-FReD were further evaluated using microscale thermophoresis (MST) measurements.
(§2) The cloning, expression, and purification of FIBCD1-FReD have been described in detail ([1]). Briefly, for the protein used for the ligand-bound crystal structures, the initial enzyme-linked immunosorbent inhibition assay (ELISA) and the MST affinity assay, FIBCD1-FReD (residues 236–461) was expressed in Sf9 insect cells using the pNT-Bac vector expression system. The recombinant FIBCD1-FReD variants used for the native crystal structure and for the repeated measurements of (GlcNAc)n n = 1, 2, 3 inhibition by ELISA, the same fragments of FIBCD1-FReD (wildtype, H396A, and K381L) were expressed in Chinese hamster ovary (CHO) cells using the ExpiCHO expression system (ThermoFisher Scientific) with FIBCD1-FReD (including the IgG K signal peptide for secretion) cloned into the pcDNA3.1+ plasmid (Genscript). Purification of the FIBCD1-FReD variants, regardless of the expression system, was achieved through affinity chromatography using acetylated Toyopearl AF-Amino-650M resin (Tosoh) followed by ion-exchange chromatography using a Resource Q ion-exchange column (GE Healthcare) as outlined in Schlosser et al. (Ref ([1])).
The affinity between recombinant FIBCD1-FReD and the acetylated sugars GlcNAc, (GlcNAc)5 and ManNAc as well as AcBSA was determined by MST. FIBCD1-FReD expressed by insect cells was labeled using the Monolith NT Protein Labeling Kit RED-NHS (NanoTemper Technologies) according to the manufacturer’s instructions. Removal of unreacted dye was performed with the supplied columns equilibrated in TBS containing 5 mM CaCl2. Labeled FIBCD1-FReD was diluted in assay buffer (TBS/Tw containing 5 mM CaCl2) and used at a constant concentration of 30 nM throughout the experiments, whereas the putative ligands were titrated in 2-fold dilutions, ranging from 0.6 nM to 10 μM (AcBSA), 100 μM to 200 mM (GlcNAc), 50 μM to 100 mM (GlcNAc)5, and 250 μM to 500 mM (ManNAc). For the measurements, all ligands were incubated with labeled FIBCD1-FReD for 20 min at RT (21–22 °C) before being loaded into standard capillaries (NanoTemper Technologies). […] Data from three to four independently pipetted experiments were analyzed using the NanoTemper Analysis 1.2.20 software and used to fit the data for determination of the Kd values.

[2] = biological target: T2, wildtype (WT) FIBCD1-FReD (Homo sapiens, UniProt Q8N539); experiment: Repeated ELISA inhibition of wildtype FIBCD1-FReD (CHO expressed) binding to AcBSA; settings: ELISA repeated measurements, mean ± SD, eight experiments
T2 construct: FIBCD1-FReD (residues 236–461) was expressed in Sf9 insect cells; IgG K signal peptide (N); made in house; host or cells: CHO cells (ExpiCHO system, pcDNA3.1+)
T2 sequence (Q8N539 236-461): T1 sequence (Q8N539 236-461)
Description: To study the finer details of short oligomer recognition, binding of GlcNAc, (GlcNAc)2, and (GlcNAc)3 was further investigated by ELISA.
as §2
(§3) The specificity of the binding of recombinant FIBCD1-FReD, expressed in insect cells, to AcBSA was assayed in technical duplicates by inhibition with acetylated compounds, including GlcNAc (Sigma-Aldrich) and three N-acetylchitooligosaccharides of defined length ((GlcNAc)3, (GlcNAc)5, and (GlcNAc)11) and acetylation (66%), which were kindly provided by Professor Morten Sølie (Norwegian University of Life Sciences). The monoclonal antibodies used in the study here were generated in-house at the University of Southern Denmark and chosen from a large series of monoclonal antibodies raised against the FReD domain (human) in FIBCD1-deficient mice—details for the production are given in ([3]). […]

[3] = biological target: T3, mutant variant H396A FIBCD1-FReD (Homo sapiens, UniProt Q8N539, H396A); experiment: Repeated ELISA inhibition of H396A FIBCD1-FReD (CHO expressed) binding to AcBSA; settings: ELISA repeated measurements, mean ± SD, five experiments
T3 construct: FIBCD1-FReD (residues 236–461) was expressed in Sf9 insect cells; IgG K signal peptide (N); made in house; host or cells: CHO cells (ExpiCHO system, pcDNA3.1+)
T3 sequence (Q8N539 236-461 H396A): T1 sequence (Q8N539 236-461) with H161A
Description: (§4) For S1(2), the mutation K381L was chosen to block this site. In the crystal structure of the homologous protein ficolin-3 the overall topology of this pocket is similar but the Leu381 side chain extends into the site and a similar orientation in FIBCD1 would preclude the ligand binding in this pocket (see Fig. S5). […] For the S1(3) site, the mutation H396A was used. There is no significant difference in affinity for H396A compared with wildtype for each GlcNAc ligand investigated (see Fig. S6C).
as §2
(§5) The specificity of the binding of recombinant FIBCD1-FReD, expressed in insect cells, to AcBSA was assayed in technical duplicates by inhibition with acetylated compounds, including GlcNAc (Sigma-Aldrich) and three N-acetylchitooligosaccharides of defined length ((GlcNAc)3, (GlcNAc)5, and (GlcNAc)11) and acetylation (66%), which were kindly provided by Professor Morten Sølie (Norwegian University of Life Sciences). […]

FIBCD1-FReD [4] = biological target: T1, FIBCD1-FReD; experiment: ELISA inhibition of FIBCD1-FReD (insect cell expressed) binding to immobilized AcBSA; settings: insect cell expressed FIBCD1-FReD 50 ng/ml, 5 mM CaCl2, mean ± SD, three to four experiments
Description: as §1, §2, §5

FIBCD1 = test system: FIBCD1; parameters: method as in PMID 19710473; settings: comparison with GlcNAc; cited from earlier work
[5] = biological target: T4, FIBCD1-FReD mutant variant K381L (Homo sapiens, UniProt Q8N539, K381L); experiment: ELISA binding of K381L FIBCD1-FReD to AcBSA; settings: two different detection antibodies (clones 11-14-25 and 11-14-13)
T4 construct: FIBCD1-FReD (residues 236–461) was expressed in Sf9 insect cells; IgG K signal peptide (N); made in house; host or cells: CHO cells (ExpiCHO system, pcDNA3.1+)
T4 sequence (Q8N539 236-461 K381L): T1 sequence (Q8N539 236-461) with K146L
Description: as §4, §3

Kd (FIBCD1-FReD [1]) [µM] | IC50 [2] [µM] | IC50 [3] [µM] | IC50 (FIBCD1-FReD [4]) [µM] | Compound | also measured
27000 ± 9000 | 2200 ± 190 | 2400 ± 220 | 2000 ± 220 | CC(=O)N[C@@H]1[C@@H](O)[C@H](O)[C@@H](CO)O[C@H]1O [GlcNAc, N-acetylglucosamine] | 
 |  |  |  | CC(=O)N[C@H]1[C@H]([C@H](O)[C@H](O)CO)OC(O)(C(=O)O)C[C@@H]1O (stereo partly drawn) [Neu5Ac, N-acetylneuraminic acid] | IC50 relative to GlcNAc (FIBCD1): lower IC50 than GlcNAc
 | 1100 ± 100 | 1200 ± 140 | 500 ± 60 | CC(=O)N[C@H]1[C@H](O[C@H]2[C@H](O)[C@@H](NC(C)=O)C(O)O[C@@H]2CO)O[C@H](CO)[C@@H](O[C@@H]2O[C@H](CO)[C@@H](O)[C@H](O)[C@H]2NC(C)=O)[C@@H]1O (stereo partly drawn) [(GlcNAc)3] | 
1200 ± 400 |  |  | 100 ± 30 | (GlcNAc)5 | fold difference in affinity (Kd) between GlcNAc and (GlcNAc)5 (FIBCD1-FReD [1]; MST, GlcNAc Kd versus (GlcNAc)5 Kd): 23 fold
 |  |  |  | AcBSA: acetylated bovine serum albumin, poly-acetylated model ligand | binding of K381L FIBCD1-FReD to AcBSA in ELISA [5]: did not bind
 | 1400 ± 160 | 1400 ± 110 |  | CC(=O)N[C@H]1[C@H](O[C@H]2[C@H](O)[C@@H](NC(C)=O)C(O)O[C@@H]2CO)O[C@H](CO)[C@@H](O)[C@@H]1O (stereo partly drawn) [(GlcNAc)2, N,N′-diacetylchitobiose] | 

Compound | Kd (FIBCD1-FReD [1]) [µM] | IC50 [2] [µM] | IC50 [3] [µM] | IC50 (FIBCD1-FReD [4]) [µM] | also measured
CC(=O)N[C@@H]1C(O)O[C@H](CO)[C@@H](O)[C@@H]1O (stereo partly drawn) [ManNAc, N-acetyl-D-mannosamine] | 31000 ± 8000 |  |  |  | 
